Measured values from ChEMBL document CHEMBL1156067, “Pyrimidine-based antagonists of h-MCH-R1 derived from ATC0175: in vitro profiling and in vivo evaluation” (Bioorg Med Chem Lett, 2009).
Activity calls are given as the source filed them. The rule behind the calls is not given here.

Key:
Rattus norvegicus [1] = assay: Reduction in food intake in diet-induced obese Wistar rat chronic feeding model at 6 mg/kg, po once daily after 8 days; format: functional, organism-based; set-up: dose 6 mg/kg
Rattus norvegicus [2] = assay: Reduction in food intake in diet-induced obese Wistar rat chronic feeding model at 6 mg/kg, po once daily measured after 14 days; format: functional, organism-based; set-up: dose 6 mg/kg
[3] = molecular target: T1, Melanin-concentrating hormone receptor 1 (Homo sapiens, UniProt Q99705); assay: Antagonist activity at CART form of human MCH1 receptor expressed in HEK293 cells coexpressing Galphaq assessed as inhibition of MCH-induced intracellular calcium level by FLIPR assay; format: functional, cell-based
Target sequence in this assay (Q99705 whole entry, looked up): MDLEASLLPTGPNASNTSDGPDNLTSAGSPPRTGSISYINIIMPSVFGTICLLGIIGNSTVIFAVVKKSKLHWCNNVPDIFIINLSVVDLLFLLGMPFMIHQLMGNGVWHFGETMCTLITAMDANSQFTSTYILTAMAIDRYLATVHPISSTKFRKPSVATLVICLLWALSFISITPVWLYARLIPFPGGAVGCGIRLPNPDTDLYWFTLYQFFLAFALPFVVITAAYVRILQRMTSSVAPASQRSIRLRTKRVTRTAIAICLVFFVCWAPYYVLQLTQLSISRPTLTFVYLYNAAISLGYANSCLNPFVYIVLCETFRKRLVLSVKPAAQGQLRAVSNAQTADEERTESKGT

[4] = molecular target: 5-hydroxytryptamine receptor 2B (Homo sapiens, UniProt P41595); assay: Displacement of [3H]rauwolsine from human 5HT2B receptor
Sequence of 5-hydroxytryptamine receptor 2B (P41595 whole entry): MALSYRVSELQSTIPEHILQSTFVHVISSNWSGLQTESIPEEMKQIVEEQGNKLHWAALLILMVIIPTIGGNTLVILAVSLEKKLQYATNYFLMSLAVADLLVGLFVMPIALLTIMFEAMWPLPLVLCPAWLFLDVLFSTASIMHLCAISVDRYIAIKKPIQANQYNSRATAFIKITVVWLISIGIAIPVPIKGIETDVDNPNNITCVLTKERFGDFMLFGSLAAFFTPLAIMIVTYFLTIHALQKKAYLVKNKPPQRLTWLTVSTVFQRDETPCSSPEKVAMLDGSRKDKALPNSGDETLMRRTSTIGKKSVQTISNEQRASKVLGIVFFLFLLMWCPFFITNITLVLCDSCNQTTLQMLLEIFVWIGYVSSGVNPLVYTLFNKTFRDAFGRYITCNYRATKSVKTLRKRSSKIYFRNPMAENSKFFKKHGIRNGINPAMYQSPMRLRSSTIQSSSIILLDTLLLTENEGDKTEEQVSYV

[5] = molecular target: T2, Alpha-2A adrenergic receptor (Homo sapiens, UniProt P08913); assay: Displacement of [3H]MK-912 from human adrenergic alpha2A receptor
T2 sequence (P08913 whole entry): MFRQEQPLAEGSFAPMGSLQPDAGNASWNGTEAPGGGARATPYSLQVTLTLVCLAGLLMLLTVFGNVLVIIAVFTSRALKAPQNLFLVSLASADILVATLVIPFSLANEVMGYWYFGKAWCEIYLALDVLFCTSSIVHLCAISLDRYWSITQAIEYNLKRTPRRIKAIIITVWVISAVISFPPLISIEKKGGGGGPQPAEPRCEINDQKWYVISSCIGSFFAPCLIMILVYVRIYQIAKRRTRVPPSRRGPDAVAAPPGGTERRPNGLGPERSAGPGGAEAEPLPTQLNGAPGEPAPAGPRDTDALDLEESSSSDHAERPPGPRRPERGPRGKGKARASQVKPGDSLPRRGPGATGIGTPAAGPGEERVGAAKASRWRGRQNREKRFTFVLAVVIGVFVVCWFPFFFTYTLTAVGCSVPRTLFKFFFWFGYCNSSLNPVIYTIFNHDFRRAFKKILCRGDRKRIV

[6] = molecular target: T3, Alpha-1A adrenergic receptor (Homo sapiens, UniProt P35348); assay: Displacement of [3H]prazosin from human adrenergic alpha1A receptor
T3 sequence (P35348 whole entry): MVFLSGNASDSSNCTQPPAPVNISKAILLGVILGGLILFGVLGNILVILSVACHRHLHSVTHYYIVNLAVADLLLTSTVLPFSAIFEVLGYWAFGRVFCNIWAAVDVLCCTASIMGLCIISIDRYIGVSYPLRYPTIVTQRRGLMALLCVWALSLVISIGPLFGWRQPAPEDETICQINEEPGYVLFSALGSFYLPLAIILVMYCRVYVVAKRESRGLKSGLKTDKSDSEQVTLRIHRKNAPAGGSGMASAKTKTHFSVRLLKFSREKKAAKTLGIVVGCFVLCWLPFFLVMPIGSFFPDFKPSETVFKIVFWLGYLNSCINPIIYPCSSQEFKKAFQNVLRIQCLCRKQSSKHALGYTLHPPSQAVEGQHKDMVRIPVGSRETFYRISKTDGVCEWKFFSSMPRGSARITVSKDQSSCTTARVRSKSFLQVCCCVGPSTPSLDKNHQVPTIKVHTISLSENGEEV

Histamine H1 receptor = Histamine H1 receptor (Homo sapiens, UniProt P35367); assay: Displacement of [3H]pyrilamine from human histamine H1 receptor
Sequence of Histamine H1 receptor (P35367 whole entry): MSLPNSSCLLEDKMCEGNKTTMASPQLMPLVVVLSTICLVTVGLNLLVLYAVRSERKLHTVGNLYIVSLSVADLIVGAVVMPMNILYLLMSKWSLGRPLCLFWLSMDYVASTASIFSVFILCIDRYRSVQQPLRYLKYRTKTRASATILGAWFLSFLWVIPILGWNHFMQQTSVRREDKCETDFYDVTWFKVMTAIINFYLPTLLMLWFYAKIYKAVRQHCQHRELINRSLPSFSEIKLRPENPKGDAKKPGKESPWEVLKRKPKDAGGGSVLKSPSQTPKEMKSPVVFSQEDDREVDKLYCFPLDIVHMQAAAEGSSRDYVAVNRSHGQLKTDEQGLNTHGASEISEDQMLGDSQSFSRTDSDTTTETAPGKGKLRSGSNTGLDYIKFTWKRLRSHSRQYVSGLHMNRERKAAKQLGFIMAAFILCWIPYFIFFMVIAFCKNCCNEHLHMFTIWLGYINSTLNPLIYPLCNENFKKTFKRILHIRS

[7] = molecular target: T4, 5-hydroxytryptamine receptor 1A (Homo sapiens, UniProt P08908); assay: Inhibition of human 5HT1A
T4 sequence (P08908 whole entry): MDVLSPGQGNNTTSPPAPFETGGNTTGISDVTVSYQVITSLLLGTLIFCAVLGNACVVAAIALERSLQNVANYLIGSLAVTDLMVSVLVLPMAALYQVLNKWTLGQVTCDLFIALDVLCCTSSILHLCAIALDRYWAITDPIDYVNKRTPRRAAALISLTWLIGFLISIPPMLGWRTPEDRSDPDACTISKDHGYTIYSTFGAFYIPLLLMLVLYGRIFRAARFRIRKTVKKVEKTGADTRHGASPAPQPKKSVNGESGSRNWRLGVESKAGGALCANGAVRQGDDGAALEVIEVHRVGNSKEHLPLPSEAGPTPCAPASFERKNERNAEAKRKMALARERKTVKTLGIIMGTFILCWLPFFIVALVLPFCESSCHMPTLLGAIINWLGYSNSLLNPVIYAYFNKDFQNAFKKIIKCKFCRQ

Rattus norvegicus [8] = assay: Reduction in food intake in diet-induced obese Wistar rat chronic feeding model at 10 mg/kg, po once daily after 2 days; format: functional, organism-based; set-up: dose 10 mg/kg
Rattus norvegicus [9] = assay: Reduction in body weight in diet-induced obese Wistar rat chronic feeding model at 10 mg/kg, po once daily after 28 days relative to control; format: functional; set-up: scale not given: the % may be the effect or the level left
Rattus norvegicus [10] = assay: Reduction in food intake in diet-induced obese Wistar rat chronic feeding model at 15 mg/kg, po once daily after 3 days; format: functional, organism-based; set-up: dose 15 mg/kg
Rattus norvegicus [11] = assay: Reduction in body weight in diet-induced obese Wistar rat chronic feeding model at 15 mg/kg, po once daily after 14 days relative to control; format: functional; set-up: scale not given: the % may be the effect or the level left
Rattus norvegicus [12] = assay: Reduction in body weight in diet-induced obese Wistar rat chronic feeding model at 10 mg/kg, po once daily up to 28 days measured after 2 weeks of recovery period; format: functional, organism-based; set-up: dose 10 mg/kg
Rattus norvegicus [13] = assay: Reduction in body weight in diet-induced obese Wistar rat chronic feeding model at 15 mg/kg, po once daily up to 14 days measured after recovery period; format: functional, organism-based; set-up: dose 15 mg/kg
Rattus norvegicus [14] = assay: Reduction in body weight in diet-induced obese Wistar rat chronic feeding model at 5 mg/kg, po once daily after 28 days relative to control; format: functional; set-up: scale not given: the % may be the effect or the level left
Rattus norvegicus [15] = assay: Reduction in body weight in diet-induced obese Wistar rat chronic feeding model at 1 mg/kg, po once daily after 28 days; format: functional, organism-based; set-up: dose 1 mg/kg
Rattus norvegicus [16] = assay: Reduction in food intake in diet-induced obese Wistar rat chronic feeding model at 15 mg/kg, po once daily up to 14 days measured after recovery period; format: functional, organism-based; set-up: dose 15 mg/kg
Rattus norvegicus [17] = assay: Reduction in food intake in diet-induced obese Wistar rat chronic feeding model at 10 mg/kg, po once daily up to 28 days measured after 2 weeks of recovery period; format: functional, organism-based; set-up: dose 10 mg/kg
Rattus norvegicus [18] = assay: Reduction in food intake in diet-induced obese Wistar rat chronic feeding model at 5 mg/kg, po once daily after 28 days; format: functional, organism-based; set-up: dose 5 mg/kg
Rattus norvegicus [19] = assay: Reduction in food intake in diet-induced obese Wistar rat chronic feeding model at 1 mg/kg, po once daily after 28 days; format: functional, organism-based; set-up: dose 1 mg/kg
[20] = Drug level in Sprague-Dawley rat brain at 10 mg/kg, po after 2 hrs; format: ADME, organism-based; set-up: dose 10 mg/kg, route oral
[21] = Drug level in Sprague-Dawley rat brain at 10 mg/kg, po after 4 hrs; format: ADME, organism-based; set-up: dose 10 mg/kg, route oral
[22] = Plasma concentration in Sprague-Dawley rat at 10 mg/kg, po after 2 hrs; format: ADME, organism-based; set-up: dose 10 mg/kg, route oral
[23] = Plasma concentration in Sprague-Dawley rat at 10 mg/kg, po after 4 hrs; format: ADME, organism-based; set-up: dose 10 mg/kg, route oral
Rattus norvegicus [24] = assay: Toxicity in rat at 100 mg/kg, po once daily after 14 days; conditions: in vivo, 336 h
[25] = molecular target: T1, Melanin-concentrating hormone receptor 1; assay: Antagonist activity at CART form of human MCH1 receptor expressed in HEK293 cells coexpressing Galphaq assessed as inhibition of MCH-induced intracellular calcium level up to 10 uM by FLIPR assay; format: functional, cell-based
Target sequence in this assay (Q99705 whole entry): as the sequence (Q99705 whole entry, looked up) above

Compound | IC50 [3] | IC50 [4] | IC50 [5] | IC50 [6] | IC50 (Histamine H1 receptor) | also measured
CC(C)CC(N(C)C)C1(c2ccc(Cl)cc2)CCC1 (stereo not given) | – | – | – | – | – | Activity (Rattus norvegicus [1]): Active; Activity (Rattus norvegicus [2]): inactive
Cc1cnc(N[C@H]2CC[C@@H](NC(=O)c3ccc(F)cc3)CC2)nc1N(C)C | 6 nM | 300 nM | 470 nM | 7500 nM | 810 nM | –
Cc1cc(N(C)C)nc(N[C@H]2CC[C@@H](NC(=O)c3ccc(Cl)c(Cl)c3)CC2)n1 | 4.8 nM | 130 nM | 130 nM | > 10000 nM | 390 nM | –
Cc1cnc(N[C@H]2CC[C@@H](NC(=O)c3ccc(F)c(F)c3)CC2)nc1N(C)C | 2 nM | – | – | – | – | –
Cc1cnc(N[C@H]2CC[C@@H](CNC(=O)c3cc(C(F)(F)F)cc(C(F)(F)F)c3)CC2)nc1N(C)C | 5 nM | 3100 nM | 310 nM | 3200 nM | > 10000 nM | IC50 [7]: 4800 nM; Activity (Rattus norvegicus [8]): Active; Activity (Rattus norvegicus [9]): 17%; Activity (Rattus norvegicus [10]): Active; Activity (Rattus norvegicus [11]): >15%; Activity (Rattus norvegicus [12]): inactive; Activity (Rattus norvegicus [13]): inactive; Activity (Rattus norvegicus [14]): -5.4%; Activity (Rattus norvegicus [15]): inactive; Activity (Rattus norvegicus [16]): inactive; Activity (Rattus norvegicus [17]): inactive; Activity (Rattus norvegicus [18]): inactive; Activity (Rattus norvegicus [19]): inactive; concentration at 2 h [20]: 9 ng/g; concentration at 4 h [21]: 10 ng/g; concentration at 2 h [22]: 50 ng/mL; concentration at 4 h [23]: 63 ng/mL; Activity (Rattus norvegicus [24]): Non-toxic
Cc1cc(N(C)C)nc(N[C@H]2CC[C@@H](NC(=O)c3cc(C(F)(F)F)cc(C(F)(F)F)c3)CC2)n1 | 8 nM | > 10000 nM | 200 nM | 1320 nM | 1210 nM | –
Cc1cnc(N[C@H]2CC[C@@H](NC(=O)c3ccc(Cl)cc3)CC2)nc1N(C)C | 10 nM | 300 nM | 1590 nM | > 10000 nM | 760 nM | –
Cc1cc(N(C)C)nc(N[C@H]2CC[C@@H](NC(=O)c3cccc(Cl)c3)CC2)n1 | 6.5 nM | – | – | – | – | –
CN(C)c1ccnc(N[C@H]2CC[C@@H](NC(=O)c3ccc(F)c(F)c3)CC2)n1 | – | – | – | – | – | Activity [25]: inactive
CN(C)c1cc(N(C)C)nc(N[C@H]2CC[C@@H](NC(=O)c3ccc(F)c(F)c3)CC2)n1 | 58 nM | – | – | – | – | –
Cc1cnc(N[C@H]2CC[C@@H](CNC(=O)c3cc(C(F)(F)F)cc(C(F)(F)F)c3)CC2)nc1N | 600 nM | – | – | – | – | –
Cc1cnc(N[C@H]2CC[C@@H](CNC(=O)c3cccc(C(F)(F)F)c3)CC2)nc1N(C)C | 26 nM | – | – | – | – | –
Cc1cc(N(C)C)nc(N[C@H]2CC[C@@H](CNC(=O)c3cc(Cl)cc(Cl)c3)CC2)n1 | 64 nM | – | – | – | – | –
Cc1ccc(C(=O)N[C@H]2CC[C@@H](Nc3ncc(C)c(N(C)C)n3)CC2)cc1 | 13 nM | 120 nM | 1770 nM | > 10000 nM | 170 nM | –
CNc1nc(N[C@H]2CC[C@@H](CNC(=O)c3cc(C(F)(F)F)cc(C(F)(F)F)c3)CC2)ncc1C | 200 nM | – | – | – | – | –
Cc1cnc(N[C@H]2CC[C@@H](CNC(=O)c3cc(Cl)cc(Cl)c3)CC2)nc1N(C)C | 4 nM | – | – | – | – | –
Cc1cc(N(C)C)nc(N[C@H]2CC[C@@H](NC(=O)c3ccc(Cl)cc3)CC2)n1 | 16 nM | 170 nM | 730 nM | 3000 nM | 800 nM | –
Cc1cc(N(C)C)nc(N[C@H]2CC[C@@H](NC(=O)c3ccc(F)c(F)c3)CC2)n1 | 2.5 nM | – | – | – | – | –
